Laboratory results taken from US20230322846A9, “NEUROACTIVE STEROIDS AND THEIR METHODS OF USE” (SAGE THERAPEUTICS, INC., priority 2018, published 2023).

target: [35S]-TBPS binding, rat brain cortical membranes; test: Steroid inhibition of [35S]-TBPS binding; conditions: 3 nM [35S]-TBPS, in the presence of 5 mM GABA
Outline: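 Rat cortical P2 membranes incubated 90 min at room temperature with 3 nM [35S]-TBPS, […] and test compound (0.5% DMSO final) in NaCl/Na–K phosphate pH 7.4; nonspecific binding with […]. Filter-bound radioactivity counted; IC50 and Imax from nonlinear fits, mean ± SEM.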

Row | Compound | IC50 [nM]
1 | CCC[C@@]1(O)CC[C@@]2(COC)[C@H](CC[C@H]3[C@@H]4CC[C@H]([C@H](C)Cn5nnnc5C)[C@@]4(C)CC[C@@H]32)C1 [Example 322, (3R,5R,8S,9S,10R,13S,14S,17R)-10-(methoxymethyl)-13-methyl-17-((S)-1-(5-methyl-1H-tetrazol-1-yl)propan-2-yl)-3-propylhexadecahydro-1H-cyclopenta[a]phenanthren-3-ol] | < 100
2 | CCC[C@@]1(O)CC[C@H]2[C@H](CC[C@@H]3[C@@H]2CC[C@]2(C)[C@@H]([C@@H](C)Cn4nnnc4C)CC[C@@H]32)C1 [Example 324, (3R,5R,8R,9R,10S,13S,14S,17R)-13-methyl-17-(1-(5-methyl-1H-tetrazol-1-yl)propan-2-yl)-3-propylhexadecahydro-1H-cyclopenta[a]phenanthren-3-ol] | < 100
3 | COC[C@@]1(O)CC[C@@]2(C)[C@H](CC[C@@H]3[C@@H]2[C@@H](O)C[C@]2(C)[C@@H]([C@@H](C)Cn4cc(C#N)cn4)CC[C@@H]32)C1 [Example 327, 1-((R)-2-((3R,5R,8S,9S,10S,11S,13S,14S,17R)-3,11-dihydroxy-3-(methoxymethyl)-10,13-dimethylhexadecahydro-1H-cyclopenta[a]phenanthren-17-yl)propyl)-1H-pyrazole-4-carbonitrile] | 100 to 1000
4 | COC[C@@]1(O)CC[C@@]2(C)[C@H](CC[C@@H]3[C@@H]2[C@@H](O)C[C@]2(C)[C@@H]([C@H](C)Cn4cc(C#N)cn4)CC[C@@H]32)C1 [Example 328, 1-((S)-2-((3R,5R,8S,9S,10S,11S,13S,14S,17R)-3,11-dihydroxy-3-(methoxymethyl)-10,13-dimethylhexadecahydro-1H-cyclopenta[a]phenanthren-17-yl)propyl)-1H-pyrazole-4-carbonitrile] | 100 to 1000
5 | CCC[C@@]1(O)CC[C@H]2[C@@H](CC[C@@H]3[C@@H]2CC[C@]2(C)[C@@H]([C@@H](C)Cn4nnc(C)n4)CC[C@@H]32)C1 [Example 329, (3R,5S,8R,9R,10S,13S,14S,17R)-13-methyl-17-((R)-1-(5-methyl-2H-tetrazol-2-yl)propan-2-yl)-3-propylhexadecahydro-1H-cyclopenta[a]phenanthren-3-ol] | ≥ 10000
6 | CCC[C@@]1(O)CC[C@H]2[C@@H](CC[C@@H]3[C@@H]2CC[C@]2(C)[C@@H]([C@H](C)Cn4nnc(C)n4)CC[C@@H]32)C1 [Example 330, (3R,5S,8R,9R,10S,13S,14S,17R)-13-methyl-17-((S)-1-(5-methyl-2H-tetrazol-2-yl)propan-2-yl)-3-propylhexadecahydro-1H-cyclopenta[a]phenanthren-3-ol] | ≥ 10000
7 | CCC[C@@]1(O)CC[C@H]2[C@@H](CC[C@@H]3[C@@H]2CC[C@]2(C)[C@@H]([C@H](C)Cn4nnnc4C)CC[C@@H]32)C1 [Example 331, (3R,5S,8R,9R,10S,13S,14S,17R)-13-methyl-17-((S)-1-(5-methyl-1H-tetrazol-1-yl)propan-2-yl)-3-propylhexadecahydro-1H-cyclopenta[a]phenanthren-3-ol] | ≥ 10000
8 | CC[C@@]1(O)CC[C@H]2[C@@H](CC[C@@H]3[C@@H]2CC[C@]2(C)[C@@H]([C@@H](C)Cn4nnc(C)n4)CC[C@@H]32)C1 [Example 333, (3R,5S,8R,9R,10S,13S,14S,17R)-3-ethyl-13-methyl-17-((R)-1-(5-methyl-2H-tetrazol-2-yl)propan-2-yl)hexadecahydro-1H-cyclopenta[a]phenanthren-3-ol] | 100 to 1000
9 | CC[C@@]1(O)CC[C@H]2[C@@H](CC[C@@H]3[C@@H]2CC[C@]2(C)[C@@H]([C@H](C)Cn4nnc(C)n4)CC[C@@H]32)C1 [Example 334, (3R,5S,8R,9R,10S,13S,14S,17R)-3-ethyl-13-methyl-17-((S)-1-(5-methyl-2H-tetrazol-2-yl)propan-2-yl)hexadecahydro-1H-cyclopenta[a]phenanthren-3-ol] | ≥ 10000
10 | CC[C@@]1(O)CC[C@H]2[C@@H](CC[C@@H]3[C@@H]2CC[C@]2(C)[C@@H]([C@@H](C)Cn4nnnc4C)CC[C@@H]32)C1 [Example 335, (3R,5S,8R,9R,10S,13S,14S,17R)-3-ethyl-13-methyl-17-((R)-1-(5-methyl-1H-tetrazol-1-yl)propan-2-yl)hexadecahydro-1H-cyclopenta[a]phenanthren-3-ol] | 100 to 1000
11 | CC[C@@]1(O)CC[C@H]2[C@@H](CC[C@@H]3[C@@H]2CC[C@]2(C)[C@@H]([C@H](C)Cn4nnnc4C)CC[C@@H]32)C1 [Example 336, (3R,5S,8R,9R,10S,13S,14S,17R)-3-ethyl-13-methyl-17-((S)-1-(5-methyl-1H-tetrazol-1-yl)propan-2-yl)hexadecahydro-1H-cyclopenta[a]phenanthren-3-ol] | ≥ 10000
12 | CCC[C@@]1(O)CC[C@@]2(C)[C@H](CC[C@@H]3[C@@H]2[C@H](O)C[C@]2(C)[C@@H]([C@@H](C)Cn4cc(C#N)cn4)CC[C@@H]32)C1 [Example 337, 1-((R)-2-((3R,5R,8S,9S,10S,11R,13S,14S,17R)-3,11-dihydroxy-10,13-dimethyl-3-propylhexadecahydro-1H-cyclopenta[a]phenanthren-17-yl)propyl)-1H-pyrazole-4-carbonitrile] | 100 to 1000
13 | CCC[C@@]1(O)CC[C@@]2(C)[C@H](CC[C@@H]3[C@@H]2[C@H](O)C[C@]2(C)[C@@H]([C@H](C)Cn4cc(C#N)cn4)CC[C@@H]32)C1 [Example 338, 1-((S)-2-((3R,5R,8S,9S,10S,11R,13S,14S,17R)-3,11-dihydroxy-10,13-dimethyl-3-propylhexadecahydro-1H-cyclopenta[a]phenanthren-17-yl)propyl)-1H-pyrazole-4-carbonitrile] | 100 to 1000
14 | C[C@H](Cn1cc(C#N)cn1)[C@H]1CC[C@H]2[C@@H]3CC[C@@H]4C[C@@](O)(C5CC5)CC[C@@H]4[C@H]3CC[C@]12C [Example 342, 1-((S)-2-((3R,5R,8R,9R,10S,13S,14S,17R)-3-cyclopropyl-3-hydroxy-13-methylhexadecahydro-1H-cyclopenta[a]phenanthren-17-yl)propyl)-1H-pyrazole-4-carbonitrile] | 100 to 1000
15 | CC(C)[C@@]1(O)CC[C@H]2[C@H](CC[C@@H]3[C@@H]2CC[C@]2(C)[C@@H]([C@@H](C)Cn4cc(C#N)cn4)CC[C@@H]32)C1 [Example 343, 1-((R)-2-((3R,5R,8R,9R,10S,13S,14S,17R)-3-hydroxy-3-isopropyl-13-methylhexadecahydro-1H-cyclopenta[a]phenanthren-17-yl)propyl)-1H-pyrazole-4-carbonitrile] | 100 to 1000
16 | CC(C)[C@@]1(O)CC[C@H]2[C@H](CC[C@@H]3[C@@H]2CC[C@]2(C)[C@@H]([C@H](C)Cn4cc(C#N)cn4)CC[C@@H]32)C1 [Example 344, 1-((S)-2-((3R,5R,8R,9R,10S,13S,14S,17R)-3-hydroxy-3-isopropyl-13-methylhexadecahydro-1H-cyclopenta[a]phenanthren-17-yl)propyl)-1H-pyrazole-4-carbonitrile] | ≥ 10000
